# Results taken from patent US4024139A, “2,3,4,4A-Tetrahydro-10H-1,2-oxazino[3,2-b](1,3)benzoxazin-10-ones” (Carter-Wallace, Inc., priority 1972, dated 1977).
# System: hind paw edema induced by carrageenin in the rat
# Assay: hind paw edema induced by carrageenin in the rat (anti-inflammatory activity, oral)
# Type: in vivo, rat (male, Sprague-Dawley)
# Details: oral intubation 1 h before carrageenin, foot volume 3 h later, ED50 = dose in which edema formation is inhibited by 25 percent or more in 50 percent of the rats vs. mean of controls
# Description: The procedure described below (Winters et al, Proc. Soc., Exp. Biol. Med., 111, 544, 1962) was used to establish the effectiveness of these compounds in the hind paw edema induced by carrageenin in the rat.
# Male rats of the Sprague-Dawley strain (Charles River Laboratories) weighing 100 ± 20 grams were used for this study. Six animals were used for each drug dose. The drug was suspended in 1 percent aqueous solution of gum acacia, and each rat received 10 ml/kg of the appropriate concentration of drug suspension by oral intubation; controls were given a similar volume of the vehicle. One hour later, edema in the right hind paw was induced by the subplantar injection of 0.05 ml. of 1 percent calcium carrageenin dissolved in 0.15N sodium chloride. The volume of the foot was determined immediately and again 3 hours later. The difference was recorded as edema volume. Foot volume was measured by immersion of the foot in water at the level of the lateral malleolus, and determining the volume of water displaced by the foot. The ED50 may be defined as the dose in which edema formation is inhibited by 25 percent or more in 50 percent of the rats when compared to the mean value of the controls.
row,Compound,ED50
1,"O=C1c2cc(Cl)ccc2OC2CCCON12 (stereo not drawn) [Example 1, 8-chloro-2,3,4,4a-tetrahydro-10H-1,2-oxazino (3,2-b)(1,3)benzoxazin-10-one]",100 ± 27 mg/kg
2,"O=C1c2ccccc2OC2CCCON12 (stereo not drawn) [Example 2, 2,3,4,4a-tetrahydro-10H-1,2-oxazino(3,2-b) (1,3)benzoxazin-10-one]",65 ± 22 mg/kg
3,"Cc1ccc2c(c1)C(=O)N1OCCCC1O2 (stereo not drawn) [Example 3, 8-methyl-2,3,4,4a-tetrahydro-10H-1,2oxazino (3,2-b)(1,3)benzoxazine-10-one]",> 300 mg/kg
4,"CC1CCC2Oc3ccc(Cl)cc3C(=O)N2O1 (stereo not drawn) [Example 4, 8-chloro-2-methyl-2,3,4,4a-tetrahydro-10H-1,2-oxazino(3,2-b)(1,3)benzoxazin-10-one]",270 ± 185 mg/kg
5,"CC1CON2C(=O)c3cc(Cl)ccc3OC2C1 (stereo not drawn) [Example 5, 8-chloro-3-methyl-2,3,4,4a-tetrahydro-10H-1,2-oxazino(3,2-b)(1,3)benzoxazin-10-one]",160 ± 73 mg/kg
6,"CC1CCON2C(=O)c3cc(Cl)ccc3OC12 (stereo not drawn) [Example 6, 8-chloro-4-methyl-2,3,4,4a-tetrahydro-10H-1,2-oxazino(3,2-b)(1,3)benzoxazin-10-one]",195 ± 96 mg/kg
